Experiments:
hPPARγ = biological target: T1, hPPARγ (Homo sapiens, UniProt P37231); assay: Gal4-hPPARγ chimera transactivation in COS-7 cells (luciferase); assay type: cell-based; conditions: induction factor standardised to an internal reference, read-out: % hGal4-PPAR transactivation (10 μM) gamma
T1 construct: fragments of DNA amplified by PCR corresponding to the DEF domains of the human PPARα, PPARγ PPARδ nuclear receptors; expressed in transfected cells; host or cells: COS-7 (monkey kidney fibroblast line)
T1 sequence (P37231 238-503 limits assumed): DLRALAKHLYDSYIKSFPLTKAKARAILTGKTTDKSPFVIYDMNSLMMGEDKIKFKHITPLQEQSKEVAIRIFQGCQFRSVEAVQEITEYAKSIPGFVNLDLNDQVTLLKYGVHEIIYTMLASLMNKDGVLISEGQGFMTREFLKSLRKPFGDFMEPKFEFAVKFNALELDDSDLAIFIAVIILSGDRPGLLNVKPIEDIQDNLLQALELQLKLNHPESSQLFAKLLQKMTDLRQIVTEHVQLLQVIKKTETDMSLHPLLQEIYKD
Procedure, shortened: (§1)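 COS-7 cells transiently transfected with Gal4-DBD/human PPAR DEF-domain chimeras plus Gal4(RE)_TkpGL3 luciferase reporter (1/10 ratio), then exposed 24 h serum-free to compound at 10 μM. Luciferase induction factor over control, normalised to an internal reference per isoform, expressed as percent activation.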

hPPARδ = biological target: T2, hPPARδ (Homo sapiens, UniProt Q03181); assay: Gal4-hPPARδ chimera transactivation in COS-7 cells (luciferase); assay type: cell-based; conditions: induction factor standardised to an internal reference, read-out: % hGal4-PPAR transactivation (10 μM) delta
T2 construct: fragments of DNA amplified by PCR corresponding to the DEF domains of the human PPARα, PPARγ PPARδ nuclear receptors; expressed in transfected cells; host or cells: COS-7 (monkey kidney fibroblast line)
T2 sequence (Q03181 211-439 limits assumed): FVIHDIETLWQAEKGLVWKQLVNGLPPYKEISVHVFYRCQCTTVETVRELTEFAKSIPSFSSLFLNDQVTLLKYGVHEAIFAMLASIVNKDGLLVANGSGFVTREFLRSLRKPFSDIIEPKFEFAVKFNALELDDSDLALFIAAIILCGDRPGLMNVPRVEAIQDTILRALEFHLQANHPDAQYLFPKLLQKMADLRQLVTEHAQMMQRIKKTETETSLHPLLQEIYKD
Procedure, shortened: as §1

[1] = biological target: T3, ATP-dependent potassium channels (K+ATP) (Rattus norvegicus, UniProt Q09429); assay: [3H]glibenclamide binding to ATP-dependent potassium channels of rat cerebral cortex; conditions: 1 h; 300 nM; specific displacement of [3H]glibenclamide 0.1 nM; read-out: KATP binding (300 nM)
T3 construct: the potassium channels derive from a rat's cerebral cortex; tissue CEREP; host or cells: rat cerebral cortex
Procedure, shortened: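 Rat cerebral cortex membranes incubated 1 h at 22° C with 0.1 nM [3H]glibenclamide; nonspecific binding defined with 1 μM unlabelled glibenclamide. Compounds tested at 3–300 nM; values are percent inhibition of specific binding.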

T3 sequence (Q09429 whole entry): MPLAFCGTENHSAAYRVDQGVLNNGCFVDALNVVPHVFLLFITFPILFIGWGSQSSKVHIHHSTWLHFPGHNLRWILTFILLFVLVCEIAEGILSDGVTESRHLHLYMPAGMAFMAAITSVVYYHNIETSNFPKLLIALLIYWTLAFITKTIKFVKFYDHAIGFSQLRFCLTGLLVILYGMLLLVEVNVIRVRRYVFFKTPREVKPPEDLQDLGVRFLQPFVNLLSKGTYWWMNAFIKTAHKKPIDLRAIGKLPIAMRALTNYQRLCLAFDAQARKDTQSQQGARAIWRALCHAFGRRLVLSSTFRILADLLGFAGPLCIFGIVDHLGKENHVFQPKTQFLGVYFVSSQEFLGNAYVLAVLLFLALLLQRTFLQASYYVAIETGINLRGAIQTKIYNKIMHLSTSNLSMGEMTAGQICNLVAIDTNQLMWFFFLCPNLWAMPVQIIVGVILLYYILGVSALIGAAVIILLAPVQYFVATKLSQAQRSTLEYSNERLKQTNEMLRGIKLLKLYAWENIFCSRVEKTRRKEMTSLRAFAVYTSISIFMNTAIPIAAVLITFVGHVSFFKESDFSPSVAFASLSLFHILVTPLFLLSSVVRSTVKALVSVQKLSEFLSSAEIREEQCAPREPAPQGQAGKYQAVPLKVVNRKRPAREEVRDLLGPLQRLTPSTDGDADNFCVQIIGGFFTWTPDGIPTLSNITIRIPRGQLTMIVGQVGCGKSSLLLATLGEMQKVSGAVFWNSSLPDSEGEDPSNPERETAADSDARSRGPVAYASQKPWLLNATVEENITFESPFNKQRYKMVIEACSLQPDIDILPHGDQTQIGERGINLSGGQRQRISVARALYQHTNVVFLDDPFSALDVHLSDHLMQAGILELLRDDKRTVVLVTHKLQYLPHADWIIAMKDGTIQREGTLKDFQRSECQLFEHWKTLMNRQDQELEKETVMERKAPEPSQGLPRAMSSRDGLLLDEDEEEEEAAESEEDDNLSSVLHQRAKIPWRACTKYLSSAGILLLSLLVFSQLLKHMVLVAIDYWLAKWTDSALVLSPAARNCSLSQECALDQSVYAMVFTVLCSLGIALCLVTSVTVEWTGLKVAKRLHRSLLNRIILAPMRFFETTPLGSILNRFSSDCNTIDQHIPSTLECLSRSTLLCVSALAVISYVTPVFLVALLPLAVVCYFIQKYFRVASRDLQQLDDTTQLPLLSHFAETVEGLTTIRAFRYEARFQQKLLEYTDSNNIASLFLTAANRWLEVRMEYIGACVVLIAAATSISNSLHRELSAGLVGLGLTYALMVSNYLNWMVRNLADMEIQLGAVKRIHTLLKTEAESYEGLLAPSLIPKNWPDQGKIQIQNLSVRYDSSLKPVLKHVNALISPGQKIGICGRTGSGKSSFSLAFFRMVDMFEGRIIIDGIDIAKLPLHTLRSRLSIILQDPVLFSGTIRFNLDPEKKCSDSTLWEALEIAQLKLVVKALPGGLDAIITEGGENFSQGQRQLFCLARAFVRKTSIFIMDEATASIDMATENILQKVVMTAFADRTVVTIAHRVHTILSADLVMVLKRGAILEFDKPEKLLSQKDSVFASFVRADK
T3 sequence (P70673 whole entry partner): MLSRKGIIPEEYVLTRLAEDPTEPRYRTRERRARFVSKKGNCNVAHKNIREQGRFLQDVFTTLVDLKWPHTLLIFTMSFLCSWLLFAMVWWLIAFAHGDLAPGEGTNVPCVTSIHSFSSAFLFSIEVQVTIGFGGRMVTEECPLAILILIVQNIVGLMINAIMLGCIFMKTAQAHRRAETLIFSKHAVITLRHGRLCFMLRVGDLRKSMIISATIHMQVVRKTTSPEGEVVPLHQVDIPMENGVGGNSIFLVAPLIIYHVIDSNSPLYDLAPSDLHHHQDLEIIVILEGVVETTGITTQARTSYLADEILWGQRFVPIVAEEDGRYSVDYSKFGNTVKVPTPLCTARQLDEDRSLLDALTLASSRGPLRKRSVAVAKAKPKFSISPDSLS

- activation at 10 µM (hPPARγ): < 10%
- activation at 10 µM (hPPARδ): < 10%
- inhibition at 0.3 µM [1]: 83%
SMILES: CCCCC(NC(=O)Cc1ccc(OC(C)(C)C(=O)NS(C)(=O)=O)cc1)c1ccccc1N1CCCCC1 (stereo not drawn) [Compound 52, N-[methylsulfonyl]-2-[4-[1-(1-(2-(1-piperidinyl)phenyl)pentyl)aminocarbonylmethyl]phenoxy]-2-methylpropanamide]

From patent US20060079696A1, “Substituted compounds derived from N-(benzyl)phenylacetamide, preparation and uses” (GENFIT, priority 2004, published 2006)
